Key:
[1] = Metabolic stability in rat liver microsomes after 5 to 180 mins by HPLC-UV analysis; type: ADME
[2] = Half life in rat liver microsomes at 100 uM after 5 to 180 mins by HPLC-UV analysis; type: ADME

| Structure (SMILES) | k el [1] | half-life at 100 µM [2] |
| --- | --- | --- |
| C[C@]12CC[C@H]3[C@@H](CCC4=CC(=O)CC[C@@]43C)[C@@H]1CC[C@@H]2O [TESTOSTERONE] | 0.00525 s⁻¹ | 2.1 min |
| COc1cc2c(cc1OC)C(=O)C(CC1CCN(Cc3ccccc3)CC1)C2 (stereo unspecified) [DONEPEZIL] | 0.000149 s⁻¹ | 73.3 min |
| Oc1c(I)cc(Cl)c2cccnc12 [CLIOQUINOL] | 0.000331 s⁻¹ | 34.8 min |
